Key:
lactobacilli = assay: Survival of lactobacillus strains after 2-hour exposure to lactic acid; format: cell-based, four lactobacillus strains
Description: (§1) Eighteen BV-associated organisms, and four lactobacillus strains obtained from the American Type Culture Collection, Rockville Md., were grown in appropriate growth medium and incubation conditions, and exposed to a 2-hour further incubation at 37° C. in media at pH 7 without lactic acid, or at pH 4.5 with racemic lactic acid concentrations ranging from zero to 550 mM (5%). The number of organisms surviving exposure to these conditions is plotted in FIG. 4. BV-associated organisms are plotted with solid lines.

BV-associated organisms = assay: Survival of BV-associated organisms after 2-hour exposure to racemic lactic acid; format: cell-based, Eighteen BV-associated organisms; details: pH 4.5, between 10 and 100 mM (~0.1-1%) lactic acid, 37° C., versus pH 4.5 without lactic acid
Description: as §1

[1] = tested on: Herpes simplex virus type 2 (HSV-2); assay: Inactivation of cell-free HSV-2 by acidified exposure media, titred on Elvis cells; format: cell-based; details: 0.1% acid, pH 3.8, 30 minutes, 37° C.
Description: The effect of low pH alone, and low pH in the presence of racemic lactic acid, L-lactic acid, and D-lactic acid on the survival of Herpes simplex virus type 2 (HSV-2) was assessed. Cell-free HSV-2 (ATCC VR-734™ strain 9, American Type Culture Collection, Manassas, Va.) was aliquoted, stored at −80° C., and thawed immediately before its use. Elvis™ (Enzyme-linked Virus Inducible System™) cells (Diagnostic Hybrids, Athens Ohio) were supplied growing in flat-bottomed, 96-well microplates. Each plate was kept in a humidified incubator (5% CO2, 37° C.) until the cells were between 75% and 95% confluent. The supplier's original growth medium was replaced with fresh, pre-warmed tissue culture re-feeding medium (Trinity Biotech USA, Jamestown, N.Y.) several hours before the microplate was used in an experiment.
Viral exposure media were prepared by adding 0.1% D,L-lactic acid (Sigma-Aldrich, St. Louis, Mo.), D-lactic acid (Bachem Bioscience Inc., King of Prussia, Pa.), L-lactic acid, (Sigma-Aldrich, St. Louis, Mo.), acetic acid (Sigma-Aldrich) or no acid to 0.9% NaCl in deionized water. The pH of the solutions was measured and adjusted as necessary before, during, and after the experiments using an MI-410 combination pH electrode (Microelectrodes Inc., Bedford, N.H.) to pH 3.8 for all of the organic acid-containing viral exposure media. Two viral exposure media not containing an organic acid were adjusted to pH 3.8 with HCl, or to pH 7.4 with dilute NaOH. Freshly thawed viral stock was diluted 1:10 with viral exposure media and incubated for 30 minutes at 37° C. At the end of the incubation, all media were diluted ten-fold with re-feeding medium to rapidly neutralize the acidity of those media that were acidic. Three-fold serial dilutions were then made with the same growth medium. Each dilution of virus was then inoculated into two replicate wells on a microplate of Elvis™ cells. The microplate was spun at […], 25° C. for 25 minutes and incubated in a humidified incubator (5% CO2, 37° C.) for 16-24 hours. The growth medium was removed from the microplate wells, and the Elvis™ cells were fixed and stained according to the manufacturer's instructions. The microplate wells were examined on an inverted microscope for the presence of blue-stained cells, indicating viral infection.

[2] = tested on: Herpes simplex virus type-1 (HSV-1); assay: Inactivation of HSV-1 (KOS strain) by acidified exposure media; format: cell-based; details: 0.1%, pH 3.8, 30-minute exposure
[3] = tested on: M. mulieris, M. curtisii, Mycoplasma hominus; assay: Inactivation of three BV-associated organisms by L-lactic acid; format: cell-based, Mobiluncus mulieris, Mobiluncus curtisii; details: pH 4.5, 2-hour, 37° C.
Description: as §1

Description for HeLa cells: The toxicity of D-lactic acid and of L-lactic acid were assessed on tissue culture monolayers using a well known cell viability assay. HeLa cells (ATCC CCL-2, a cell line derived from a cervical epithelial cancer) were grown in 96-well tissue culture plates to approximately 90% confluence in DMEM medium supplemented with 3% fetal bovine serum. Medium was removed from the wells, and replaced by the same medium now containing D- or L-lactic acid between concentrations of 0% and 1% (w/v). The plates were incubated for 30 minutes at 37° C. and 5% CO2. The wells were washed three times with 0.9% saline, and then 20 microliters of a tetrazolium viability stain (Promega CellTiter 9603 One Solution) was added. After 1 hour, the absorbance of the fluid in the wells was read with a spectrophotometer at a wavelength of 575 nanometers.

For `CC(O)C(=O)O` (racemic) [racemic lactic acid, D,L-lactic acid, reference compound], the “Survival of lactobacilli (in words)” value (lactobacilli; pH 4.5, highest concentration tested (5% or ~550 millimolar), 2-hour, 37° C.) was “survived unaltered” and the “Inactivation of BV-associated organisms (in words)” value (BV-associated organisms) was “dramatically increased”.

`C[C@@H](O)C(=O)O` [D-lactic acid, reference compound] was tested, and the “HSV-2 inactivation beyond low pH without organic acids (in words)” value [1] was “further reduced HSV-2 viability”.

With `C[C@H](O)C(=O)O` [L-lactic acid] the “HSV-2 inactivation beyond low pH without organic acids (in words)” value [1] was “further reduced HSV-2 viability”, the “reduction of HSV-2 viability, more than low pH with D-lactic acid” value [1] was “approximately 5 fold” and the “reduction of HSV-2 viability, more than low pH without lactic acid” value [1] was “approximately 11 fold”. The “HSV-1 inactivation, greater than D-lactic acid at pH 3.8” value [2] was “approximately 10 fold”, the “HSV-1 inactivation, more than at pH 3.8 without lactic acid” value [2] was about 25 fold and the “HSV-1 inactivation, more than the control at pH 7.4 without lactic acid” value [2] was “approximately 80 fold”. For the same compound, the “shift of dose-response for cellular cytotoxicity relative to D-lactic acid” value (HeLa cells) was “more than 500 fold”, the “Inactivation of all three organisms at pH 4.5 with L-lactic acid versus pH 4.5 without lactic acid (in words)” value [3] was “substantially greater” and the “concentration not harmful to lactobacilli” value (lactobacilli; pH 4.5, inferred from 550 mM racemic lactic acid being 50% L-lactic acid) was “up to 280 mM”.

`CC(=O)O` [acetic acid, reference compound] was tested, and the “HSV-2 inactivation beyond low pH without organic acids (in words)” value [1] was “did not increase the degree of inactivation”.

From US20120070476A1, “Compositions and Methods for Inactivation of Pathogens at Genital Tract Surfaces” (priority 2009, published 2012)
